Series [1] concerns Salmonella typhimurium. The experiment in a line: Antibacterial activity against Salmonella enterica serovar Typhimurium 14028s by CLSI M7-A7 microdilution method. The series is classed as functional, Salmonella enterica subsp. enterica serovar Typhimurium. For orientation: In broth dilution the organism is exposed to a series of concentrations in liquid medium.
Series [2] deals with Salmonella typhimurium. Kind of series: Antibacterial activity against 9.0 x 10^7 CFU/ml Salmonella enterica serovar Typhimurium 14028s assessed as decrease in bacterial viable cell count at 2.5 uM by spectrophotometry. The series is classed as functional, organism-based. As to conditions: Salmonella enterica subsp. enterica serovar Typhimurium.
In a further series the test system is Serum. The experiment in a line: Drug concentration in rat serum administered as single bolus dose. The series is classed as ADME, organism-based. As to conditions: in vivo.
Series [3] has as its system Salmonella typhimurium. Kind of series: Antibacterial activity against 9.0 x 10^7 CFU/ml Salmonella enterica serovar Typhimurium 14028s assessed as decrease in growth rate at 2.5 uM by spectrophotometry. The series is classed as functional, organism-based. As to conditions: Salmonella enterica subsp. enterica serovar Typhimurium.
The test system of series [4] is Salmonella typhimurium. The experiment in a line: Antibacterial activity against 9.0 x 10^7 CFU/ml Salmonella enterica serovar Typhimurium 14028s assessed as decrease in growth rate at 50 uM by spectrophotometry. The series is classed as functional, organism-based. As to conditions: Salmonella enterica subsp. enterica serovar Typhimurium.
The subject of series [5] is Salmonella typhimurium. The experiment in a line: Antibacterial activity against 9.0 x 10^7 CFU/ml Salmonella enterica serovar Typhimurium 14028s infected in RAW264.7 mouse macrophages assessed as decrease in intracellular bacterial level at 3 uM measured 18 hrs post infection. As to conditions: Salmonella enterica subsp. enterica serovar Typhimurium. The series is classed as functional, organism-based.

For series [6], the system named is Salmonella typhimurium. The experiment in a line: Antibacterial activity against 9.0 x 10^7 CFU/ml Salmonella enterica serovar Typhimurium 14028s infected in RAW264.7 mouse macrophages assessed as decrease in intracellular bacterial level at 3 uM measured 42 hrs post infection relative to untreated control. The series is classed as functional, Salmonella enterica subsp. enterica serovar Typhimurium.

For series [7], the system named is Salmonella typhimurium. Kind of series: Antibacterial activity against 9.0 x 10^7 CFU/ml Salmonella enterica serovar Typhimurium 14028s infected in RAW264.7 mouse macrophages assessed as decrease in intracellular bacterial level at 3 uM measured 2 hrs post infection. The series is classed as functional, Salmonella enterica subsp. enterica serovar Typhimurium. More on the design: scale not given: the % may be the effect or the level left.

In series [8] the test system is Salmonella typhimurium. Kind of series: Antibacterial activity against 9.0 x 10^7 CFU/ml Salmonella enterica serovar Typhimurium 14028s assessed as decrease in bacterial viable cell count at 2.5 uM by spectrophotometry relative to untreated control. The series is classed as functional, Salmonella enterica subsp. enterica serovar Typhimurium.
[9] abbreviates: Salmonella enterica subsp. enterica serovar Typhimurium.

Converted amounts (≈) assume the structure as drawn. The source made the active and inactive calls. No cut-off for these calls is given here.

As a reminder, the MIC is the lowest concentration found to suppress growth. In the series on Salmonella typhimurium [1], `CC1(C)S[C@@H]2[C@H](NC(=O)[C@H](N)c3ccccc3)C(=O)N2[C@H]1C(=O)O` [AMPICILLIN] came in with an MIC of 20 µM (≈ 6.99 µg/mL).
Turning to `CC(=O)N[C@@H](CCCNC(=N)N)C(=O)NCCCCCC(=O)N[C@@H](CCCNC(=N)N)C(=O)N[C@@H](CCCNC(=N)N)C(=O)NCCCCCC(=O)N[C@@H](CCCNC(=N)N)C(=O)[C@H](CCCNC(=N)N)NC(=O)CCCCCNC(=O)N[C@@H](CCCNC(=N)N)C(=O)N[C@@H](CCCNC(=N)N)C(=O)NCCCCCC(=O)N[C@@H](CCCNC(=N)N)C(=O)NCCCCCC(=O)NCCC(=O)N1C[C@@H](COP(=O)(N(C)C)N2C[C@@H](COP(=O)(N(C)C)N3C[C@@H](COP(=O)(N(C)C)N4C[C@@H](COP(=O)(N(C)C)N5C[C@@H](COP(=O)(N(C)C)N6C[C@@H](COP(=O)(N(C)C)N7C[C@@H](COP(=O)(N(C)C)N8C[C@@H](COP(=O)(N(C)C)N9C[C@@H](COP(=O)(N(C)C)N%10C[C@@H](COP(=O)(N(C)C)N%11C[C@@H](CO)O[C@@H](n%12ccc(N)nc%12=O)C%11)O[C@@H](n%11cc(C)c(=O)[nH]c%11=O)C%10)O[C@@H](n%10cc(C)c(=O)[nH]c%10=O)C9)O[C@@H](n9ccc(N)nc9=O)C8)O[C@@H](n8cnc9c(=O)[nH]c(N)nc98)C7)O[C@@H](n7cnc8c(N)ncnc87)C6)O[C@@H](n6cc(C)c(=O)[nH]c6=O)C5)O[C@@H](n5cnc6c(N)ncnc65)C4)O[C@@H](n4cnc5c(=O)[nH]c(N)nc54)C3)O[C@@H](n3cc(C)c(=O)[nH]c3=O)C2)O[C@@H](n2cnc3c(=O)[nH]c(N)nc32)C1` (stereo partly drawn), the outcome in the series on Salmonella typhimurium [2] and with Salmonella typhimurium [4] was Active. Moreover, the Drug uptake in the series on Serum turned out to be 1 µg/mL. Moreover, the outcome with Salmonella typhimurium [3] was inactive. The molecule further displayed an MIC in the series with Salmonella typhimurium [1] of 1.25 µM (≈ 6.92 µg/mL).
For the molecule `CC(=O)N[C@@H](CCCNC(=N)N)C(=O)NCCCCCC(=O)N[C@@H](CCCNC(=N)N)C(=O)N[C@@H](CCCNC(=N)N)C(=O)NCCCCCC(=O)N[C@@H](CCCNC(=N)N)C(=O)[C@H](CCCNC(=N)N)NC(=O)CCCCCNC(=O)N[C@@H](CCCNC(=N)N)C(=O)N[C@@H](CCCNC(=N)N)C(=O)NCCCCCC(=O)N[C@@H](CCCNC(=N)N)C(=O)NCCCCCC(=O)NCCC(=O)N1C[C@@H](COP(=O)(N(C)C)N2C[C@@H](COP(=O)(N3CCNCC3)N3C[C@@H](COP(=O)(N(C)C)N4C[C@@H](COP(=O)(N(C)C)N5C[C@@H](COP(=O)(N6CCNCC6)N6C[C@@H](COP(=O)(N(C)C)N7C[C@@H](COP(=O)(N(C)C)N8C[C@@H](COP(=O)(N(C)C)N9C[C@@H](COP(=O)(N(C)C)N%10C[C@@H](COP(=O)(N%11CCNCC%11)N%11C[C@@H](CO)O[C@@H](n%12ccc(N)nc%12=O)C%11)O[C@@H](n%11cc(C)c(=O)[nH]c%11=O)C%10)O[C@@H](n%10cc(C)c(=O)[nH]c%10=O)C9)O[C@@H](n9ccc(N)nc9=O)C8)O[C@@H](n8cnc9c(=O)[nH]c(N)nc98)C7)O[C@@H](n7cnc8c(N)ncnc87)C6)O[C@@H](n6cc(C)c(=O)[nH]c6=O)C5)O[C@@H](n5cnc6c(N)ncnc65)C4)O[C@@H](n4cnc5c(=O)[nH]c(N)nc54)C3)O[C@@H](n3cc(C)c(=O)[nH]c3=O)C2)O[C@@H](n2cnc3c(=O)[nH]c(N)nc32)C1` (stereo partly drawn), the outcome in the series with Salmonella typhimurium [2], in the series with Salmonella typhimurium [5] and in the series on Salmonella typhimurium [3] was Active. Further, the “fold change (FC)” value in the series with Salmonella typhimurium [6] worked out at 2; in the series with Salmonella typhimurium [8] it was 3. The molecule also yielded a Drug uptake in the series on Serum of 1 µg/mL. In addition, the Activity with Salmonella typhimurium [7] is reported as 56%. In addition, the lowest concentration to inhibit growth against Salmonella typhimurium [1] (MIC) was 0.156 µM (≈ 0.883 µg/mL).
Regarding `CC(=O)N[C@@H](CCCNC(=N)N)C(=O)NCCCCCC(=O)N[C@@H](CCCNC(=N)N)C(=O)N[C@@H](CCCNC(=N)N)C(=O)NCCCCCC(=O)N[C@@H](CCCNC(=N)N)C(=O)[C@H](CCCNC(=N)N)NC(=O)CCCCCNC(=O)N[C@@H](CCCNC(=N)N)C(=O)N[C@@H](CCCNC(=N)N)C(=O)NCCCCCC(=O)N[C@@H](CCCNC(=N)N)C(=O)NCCCCCC(=O)NCCC(=O)N1C[C@@H](COP(=O)(N(C)C)N2C[C@@H](COP(=O)(N(C)C)N3C[C@@H](COP(=O)(N(C)C)N4C[C@@H](COP(=O)(N(C)C)N5C[C@@H](COP(=O)(N(C)C)N6C[C@@H](COP(=O)(N(C)C)N7C[C@@H](COP(=O)(N(C)C)N8C[C@@H](COP(=O)(N(C)C)N9C[C@@H](COP(=O)(N(C)C)N%10C[C@@H](COP(=O)(N(C)C)N%11C[C@@H](CO)O[C@@H](n%12cc(C)c(=O)[nH]c%12=O)C%11)O[C@@H](n%11ccc(N)nc%11=O)C%10)O[C@@H](n%10cc(C)c(=O)[nH]c%10=O)C9)O[C@@H](n9ccc(N)nc9=O)C8)O[C@@H](n8cnc9c(N)ncnc98)C7)O[C@@H](n7cnc8c(=O)[nH]c(N)nc87)C6)O[C@@H](n6cnc7c(N)ncnc76)C5)O[C@@H](n5cc(C)c(=O)[nH]c5=O)C4)O[C@@H](n4cnc5c(=O)[nH]c(N)nc54)C3)O[C@@H](n3cnc4c(=O)[nH]c(N)nc43)C2)O[C@@H](n2cc(C)c(=O)[nH]c2=O)C1` (stereo partly drawn), the outcome with Salmonella typhimurium [2] and in the series with Salmonella typhimurium [3] was inactive. Also, in the series with Salmonella typhimurium [1], the MIC is > 160 µM.
In the case of `CC(=O)N[C@@H](CCCNC(=N)N)C(=O)NCCCCCC(=O)N[C@@H](CCCNC(=N)N)C(=O)N[C@@H](CCCNC(=N)N)C(=O)NCCCCCC(=O)N[C@@H](CCCNC(=N)N)C(=O)[C@H](CCCNC(=N)N)NC(=O)CCCCCNC(=O)N[C@@H](CCCNC(=N)N)C(=O)N[C@@H](CCCNC(=N)N)C(=O)NCCCCCC(=O)N[C@@H](CCCNC(=N)N)C(=O)NCCCCCC(=O)NCCC(=O)N1C[C@@H](COP(=O)(N2CCNCC2)N2C[C@@H](COP(=O)(N(C)C)N3C[C@@H](COP(=O)(N(C)C)N4C[C@@H](COP(=O)(N5CCNCC5)N5C[C@@H](COP(=O)(N(C)C)N6C[C@@H](COP(=O)(N(C)C)N7C[C@@H](COP(=O)(N(C)C)N8C[C@@H](COP(=O)(N(C)C)N9C[C@@H](COP(=O)(N%10CCNCC%10)N%10C[C@@H](COP(=O)(N(C)C)N%11C[C@@H](CO)O[C@@H](n%12cc(C)c(=O)[nH]c%12=O)C%11)O[C@@H](n%11ccc(N)nc%11=O)C%10)O[C@@H](n%10cc(C)c(=O)[nH]c%10=O)C9)O[C@@H](n9ccc(N)nc9=O)C8)O[C@@H](n8cnc9c(N)ncnc98)C7)O[C@@H](n7cnc8c(=O)[nH]c(N)nc87)C6)O[C@@H](n6cnc7c(N)ncnc76)C5)O[C@@H](n5cc(C)c(=O)[nH]c5=O)C4)O[C@@H](n4cnc5c(=O)[nH]c(N)nc54)C3)O[C@@H](n3cnc4c(=O)[nH]c(N)nc43)C2)O[C@@H](n2cc(C)c(=O)[nH]c2=O)C1` (stereo partly drawn), the outcome with Salmonella typhimurium [2], with Salmonella typhimurium [5], in the series with Salmonella typhimurium [6] (setting [9]), with Salmonella typhimurium [3] and in the series with Salmonella typhimurium [7] (setting [9]) was inactive. Further, the MIC in the series with Salmonella typhimurium [1] was > 160 µM.

(Values after ChEMBL document CHEMBL1671661, “Inhibition of intracellular growth of Salmonella enterica serovar Typhimurium in tissue culture by antisense peptide-phosphorodiamidate morpholino oligomer” (Antimicrob Agents Chemother, 2009).)
